The target in test [1] is LIM domain kinase 2 (Homo sapiens) (UniProt P53671). The conditions noted are these: at 10 µM.
Test [2] addresses Tyrosine-protein kinase JAK1 (Homo sapiens, UniProt P23458). Briefly: Selectivity interaction (KinomeScan (DiscoverX)) EUB0001619a JAK1. Conditions: at 1 µM.
Test [3] concerns the target Casein kinase I isoform epsilon (Homo sapiens, UniProt P49674). The test can be described thus: Selectivity interaction (KinomeScan (DiscoverX)) EUB0000666a CSNK1E. The conditions noted are these: at 10 µM.
Test [4] concerns the target T1, Ephrin type-B receptor 1 (Homo sapiens) (UniProt P54762).
T1 sequence (whole entry): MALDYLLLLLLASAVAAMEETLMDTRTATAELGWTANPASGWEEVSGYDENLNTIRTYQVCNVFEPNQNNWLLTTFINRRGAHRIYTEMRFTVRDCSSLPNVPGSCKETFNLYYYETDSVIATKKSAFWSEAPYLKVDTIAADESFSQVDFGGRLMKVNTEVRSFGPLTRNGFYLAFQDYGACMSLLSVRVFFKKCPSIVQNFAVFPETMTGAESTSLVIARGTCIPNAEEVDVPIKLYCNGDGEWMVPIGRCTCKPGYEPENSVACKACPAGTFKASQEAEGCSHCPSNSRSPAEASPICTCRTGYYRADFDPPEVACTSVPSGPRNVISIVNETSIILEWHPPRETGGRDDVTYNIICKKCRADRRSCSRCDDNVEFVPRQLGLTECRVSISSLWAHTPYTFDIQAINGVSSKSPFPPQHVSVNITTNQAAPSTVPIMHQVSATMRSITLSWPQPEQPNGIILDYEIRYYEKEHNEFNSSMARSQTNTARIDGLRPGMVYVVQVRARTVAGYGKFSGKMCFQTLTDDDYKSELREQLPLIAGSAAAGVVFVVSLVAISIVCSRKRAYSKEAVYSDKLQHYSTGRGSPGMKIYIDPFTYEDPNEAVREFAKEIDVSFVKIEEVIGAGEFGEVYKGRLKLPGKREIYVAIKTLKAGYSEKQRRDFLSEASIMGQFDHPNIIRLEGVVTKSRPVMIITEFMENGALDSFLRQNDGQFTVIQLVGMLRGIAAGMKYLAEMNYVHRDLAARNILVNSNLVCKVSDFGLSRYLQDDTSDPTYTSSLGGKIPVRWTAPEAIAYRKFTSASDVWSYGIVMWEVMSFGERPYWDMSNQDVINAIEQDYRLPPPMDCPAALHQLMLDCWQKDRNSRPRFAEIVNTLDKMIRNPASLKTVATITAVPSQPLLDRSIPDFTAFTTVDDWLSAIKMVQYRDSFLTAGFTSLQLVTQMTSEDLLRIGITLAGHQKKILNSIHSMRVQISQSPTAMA
Briefly: Selectivity interaction (KinomeScan (DiscoverX)) EUB0000607a EPHB1. The conditions noted are these: at 10 µM.

The target in test [5] is Mitogen-activated protein kinase kinase kinase 10 (Homo sapiens) (UniProt Q02779). Briefly: Selectivity interaction (ProQinase) EUB0000171b MAP3K10.
The target in test [6] is T2, Dual serine/threonine and tyrosine protein kinase (Homo sapiens) (UniProt Q6XUX3).
T2 sequence (whole entry): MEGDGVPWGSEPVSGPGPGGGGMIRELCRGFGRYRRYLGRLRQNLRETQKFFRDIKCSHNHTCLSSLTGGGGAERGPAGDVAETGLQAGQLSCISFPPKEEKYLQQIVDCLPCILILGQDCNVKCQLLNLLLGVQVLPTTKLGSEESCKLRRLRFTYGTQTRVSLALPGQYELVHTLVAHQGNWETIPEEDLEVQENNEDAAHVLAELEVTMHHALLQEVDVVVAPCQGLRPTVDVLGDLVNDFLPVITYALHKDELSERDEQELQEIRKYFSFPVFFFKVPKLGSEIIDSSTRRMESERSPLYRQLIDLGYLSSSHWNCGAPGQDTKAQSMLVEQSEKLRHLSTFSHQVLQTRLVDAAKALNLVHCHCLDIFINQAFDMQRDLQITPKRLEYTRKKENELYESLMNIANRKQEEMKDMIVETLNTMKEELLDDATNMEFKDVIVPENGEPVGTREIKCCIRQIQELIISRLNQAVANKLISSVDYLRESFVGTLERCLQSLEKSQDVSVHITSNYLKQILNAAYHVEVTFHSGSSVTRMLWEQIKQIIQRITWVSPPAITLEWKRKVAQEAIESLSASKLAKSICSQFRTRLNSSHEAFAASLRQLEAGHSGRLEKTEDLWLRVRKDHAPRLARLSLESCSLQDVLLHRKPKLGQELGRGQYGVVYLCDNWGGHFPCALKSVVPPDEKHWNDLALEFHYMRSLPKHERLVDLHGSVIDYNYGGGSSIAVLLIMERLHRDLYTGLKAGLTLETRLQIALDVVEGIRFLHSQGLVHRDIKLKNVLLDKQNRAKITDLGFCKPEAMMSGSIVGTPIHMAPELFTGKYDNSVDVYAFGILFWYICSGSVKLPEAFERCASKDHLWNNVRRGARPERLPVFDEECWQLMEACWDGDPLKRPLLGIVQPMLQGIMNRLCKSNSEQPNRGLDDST
The test can be described thus: Selectivity interaction (ProQinase) EUB0000171b DSTYK.

For test [7], the target named is Fibroblast growth factor receptor 2 (Homo sapiens) (UniProt P21802). The test can be described thus: Selectivity interaction (ProQinase) EUB0000171b FGFR2.
Test [8] has as its target Histone-lysine N-methyltransferase KMT5C (Homo sapiens) (UniProt Q86Y97). The test can be described thus: Selectivity interaction (Methyltransferase screen (radiometric assays, panel of 8 PRMTs, 21 protein lysine methyltransferases, 3 DNA methyltransferases, and one RNA methyltransferase)) EUB0000271b SUV420H2.

Sequence of Mitogen-activated protein kinase kinase kinase 10 (Homo sapiens) (Q02779 whole entry, looked up): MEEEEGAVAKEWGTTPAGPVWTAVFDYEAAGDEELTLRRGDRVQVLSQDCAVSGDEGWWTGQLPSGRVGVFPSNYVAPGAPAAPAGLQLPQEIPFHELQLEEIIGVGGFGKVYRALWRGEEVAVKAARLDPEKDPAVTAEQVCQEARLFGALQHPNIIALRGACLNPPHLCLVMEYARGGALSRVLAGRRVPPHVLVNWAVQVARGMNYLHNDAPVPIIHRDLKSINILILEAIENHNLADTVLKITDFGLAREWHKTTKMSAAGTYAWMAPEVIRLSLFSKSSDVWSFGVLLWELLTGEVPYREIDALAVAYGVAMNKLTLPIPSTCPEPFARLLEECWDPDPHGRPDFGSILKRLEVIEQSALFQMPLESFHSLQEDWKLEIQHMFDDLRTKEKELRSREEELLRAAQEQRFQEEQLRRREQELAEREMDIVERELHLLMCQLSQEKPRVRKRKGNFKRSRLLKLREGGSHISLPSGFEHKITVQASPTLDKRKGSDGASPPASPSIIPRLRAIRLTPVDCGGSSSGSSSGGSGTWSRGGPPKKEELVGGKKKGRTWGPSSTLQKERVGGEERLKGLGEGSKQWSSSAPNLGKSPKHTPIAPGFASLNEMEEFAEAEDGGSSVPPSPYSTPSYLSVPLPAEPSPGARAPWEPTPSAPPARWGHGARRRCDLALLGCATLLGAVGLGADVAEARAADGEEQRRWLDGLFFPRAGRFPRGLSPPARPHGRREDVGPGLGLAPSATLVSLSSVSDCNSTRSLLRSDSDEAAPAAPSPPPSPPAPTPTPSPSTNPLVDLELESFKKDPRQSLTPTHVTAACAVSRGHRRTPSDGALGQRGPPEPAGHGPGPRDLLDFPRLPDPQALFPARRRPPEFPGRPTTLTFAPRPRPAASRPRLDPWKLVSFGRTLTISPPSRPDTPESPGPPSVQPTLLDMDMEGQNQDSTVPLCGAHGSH
Sequence of Fibroblast growth factor receptor 2 (Homo sapiens) (P21802 22-821 limits assumed): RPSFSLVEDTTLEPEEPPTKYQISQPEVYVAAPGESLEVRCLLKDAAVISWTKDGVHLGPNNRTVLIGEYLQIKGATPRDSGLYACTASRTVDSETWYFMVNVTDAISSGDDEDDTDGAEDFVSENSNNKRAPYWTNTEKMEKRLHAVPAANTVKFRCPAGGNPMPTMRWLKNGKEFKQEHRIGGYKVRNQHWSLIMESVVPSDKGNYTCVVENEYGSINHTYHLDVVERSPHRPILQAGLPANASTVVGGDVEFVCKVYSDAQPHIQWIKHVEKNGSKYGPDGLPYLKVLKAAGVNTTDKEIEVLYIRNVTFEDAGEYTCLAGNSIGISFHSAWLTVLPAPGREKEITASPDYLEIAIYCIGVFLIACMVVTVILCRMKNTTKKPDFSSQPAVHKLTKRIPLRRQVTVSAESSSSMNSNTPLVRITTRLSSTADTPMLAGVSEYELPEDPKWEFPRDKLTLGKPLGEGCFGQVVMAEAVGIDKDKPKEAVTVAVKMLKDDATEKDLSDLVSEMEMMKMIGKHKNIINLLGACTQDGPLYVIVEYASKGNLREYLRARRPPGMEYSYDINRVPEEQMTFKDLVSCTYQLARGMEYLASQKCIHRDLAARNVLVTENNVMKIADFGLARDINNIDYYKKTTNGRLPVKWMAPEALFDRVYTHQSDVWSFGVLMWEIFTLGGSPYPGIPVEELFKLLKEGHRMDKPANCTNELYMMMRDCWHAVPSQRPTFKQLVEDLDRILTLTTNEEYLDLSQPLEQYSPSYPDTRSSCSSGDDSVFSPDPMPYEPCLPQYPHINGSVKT
Sequence of Histone-lysine N-methyltransferase KMT5C (Homo sapiens) (Q86Y97 whole entry, looked up): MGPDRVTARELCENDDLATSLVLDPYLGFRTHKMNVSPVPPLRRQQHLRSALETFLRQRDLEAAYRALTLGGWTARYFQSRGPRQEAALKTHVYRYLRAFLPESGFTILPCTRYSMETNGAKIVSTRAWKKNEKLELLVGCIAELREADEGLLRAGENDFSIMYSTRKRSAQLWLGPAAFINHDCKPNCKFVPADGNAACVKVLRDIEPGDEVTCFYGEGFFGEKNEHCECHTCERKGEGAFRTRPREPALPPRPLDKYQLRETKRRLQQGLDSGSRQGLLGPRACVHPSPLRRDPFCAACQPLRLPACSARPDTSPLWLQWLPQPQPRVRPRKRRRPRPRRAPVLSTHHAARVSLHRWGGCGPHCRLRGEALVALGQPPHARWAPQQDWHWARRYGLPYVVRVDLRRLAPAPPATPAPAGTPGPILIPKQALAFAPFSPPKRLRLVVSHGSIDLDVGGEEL
Sequence of Casein kinase I isoform epsilon (P49674 whole entry, looked up, canonical isoform): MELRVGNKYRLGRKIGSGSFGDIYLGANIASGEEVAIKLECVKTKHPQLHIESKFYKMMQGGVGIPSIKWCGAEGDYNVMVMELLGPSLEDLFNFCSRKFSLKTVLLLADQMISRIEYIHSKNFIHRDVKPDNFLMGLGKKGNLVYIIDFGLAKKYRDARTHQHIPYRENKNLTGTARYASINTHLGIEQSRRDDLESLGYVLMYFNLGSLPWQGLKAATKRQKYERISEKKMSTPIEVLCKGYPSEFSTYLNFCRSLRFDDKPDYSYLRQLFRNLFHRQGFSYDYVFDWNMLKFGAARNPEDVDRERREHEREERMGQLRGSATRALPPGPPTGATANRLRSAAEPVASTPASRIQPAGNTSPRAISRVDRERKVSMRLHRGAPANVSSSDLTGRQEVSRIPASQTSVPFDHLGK
Sequence of Tyrosine-protein kinase JAK1 (P23458 whole entry, canonical isoform): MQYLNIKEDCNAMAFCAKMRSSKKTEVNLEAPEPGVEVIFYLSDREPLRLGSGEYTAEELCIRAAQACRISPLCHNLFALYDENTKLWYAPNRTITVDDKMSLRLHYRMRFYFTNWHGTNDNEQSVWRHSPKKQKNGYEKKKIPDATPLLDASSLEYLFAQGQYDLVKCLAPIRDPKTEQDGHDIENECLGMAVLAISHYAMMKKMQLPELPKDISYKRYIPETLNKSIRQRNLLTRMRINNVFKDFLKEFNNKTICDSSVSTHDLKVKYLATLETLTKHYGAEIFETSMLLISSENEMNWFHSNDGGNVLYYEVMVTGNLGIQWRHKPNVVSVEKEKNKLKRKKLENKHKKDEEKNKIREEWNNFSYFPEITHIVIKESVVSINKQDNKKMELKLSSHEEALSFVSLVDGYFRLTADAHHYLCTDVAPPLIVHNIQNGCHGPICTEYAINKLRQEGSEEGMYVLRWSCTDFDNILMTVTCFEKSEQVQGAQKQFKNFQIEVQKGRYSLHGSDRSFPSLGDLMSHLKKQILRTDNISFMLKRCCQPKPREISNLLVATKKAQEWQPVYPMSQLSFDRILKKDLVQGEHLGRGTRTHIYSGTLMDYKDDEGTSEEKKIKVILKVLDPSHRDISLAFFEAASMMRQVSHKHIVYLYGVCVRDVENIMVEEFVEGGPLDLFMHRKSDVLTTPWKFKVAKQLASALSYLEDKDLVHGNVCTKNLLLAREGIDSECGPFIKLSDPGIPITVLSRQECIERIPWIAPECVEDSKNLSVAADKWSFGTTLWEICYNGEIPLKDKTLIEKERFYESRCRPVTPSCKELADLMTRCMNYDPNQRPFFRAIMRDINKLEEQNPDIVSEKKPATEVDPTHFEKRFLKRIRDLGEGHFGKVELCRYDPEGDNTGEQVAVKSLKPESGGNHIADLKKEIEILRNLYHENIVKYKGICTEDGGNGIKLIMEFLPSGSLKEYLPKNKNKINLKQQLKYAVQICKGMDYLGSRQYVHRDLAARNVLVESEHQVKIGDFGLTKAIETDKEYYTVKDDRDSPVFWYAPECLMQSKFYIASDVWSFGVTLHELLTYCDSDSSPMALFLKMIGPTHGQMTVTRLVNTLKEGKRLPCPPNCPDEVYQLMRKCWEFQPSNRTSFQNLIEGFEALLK
Sequence of LIM domain kinase 2 (Homo sapiens) (P53671 whole entry, looked up, the tested form may be a part): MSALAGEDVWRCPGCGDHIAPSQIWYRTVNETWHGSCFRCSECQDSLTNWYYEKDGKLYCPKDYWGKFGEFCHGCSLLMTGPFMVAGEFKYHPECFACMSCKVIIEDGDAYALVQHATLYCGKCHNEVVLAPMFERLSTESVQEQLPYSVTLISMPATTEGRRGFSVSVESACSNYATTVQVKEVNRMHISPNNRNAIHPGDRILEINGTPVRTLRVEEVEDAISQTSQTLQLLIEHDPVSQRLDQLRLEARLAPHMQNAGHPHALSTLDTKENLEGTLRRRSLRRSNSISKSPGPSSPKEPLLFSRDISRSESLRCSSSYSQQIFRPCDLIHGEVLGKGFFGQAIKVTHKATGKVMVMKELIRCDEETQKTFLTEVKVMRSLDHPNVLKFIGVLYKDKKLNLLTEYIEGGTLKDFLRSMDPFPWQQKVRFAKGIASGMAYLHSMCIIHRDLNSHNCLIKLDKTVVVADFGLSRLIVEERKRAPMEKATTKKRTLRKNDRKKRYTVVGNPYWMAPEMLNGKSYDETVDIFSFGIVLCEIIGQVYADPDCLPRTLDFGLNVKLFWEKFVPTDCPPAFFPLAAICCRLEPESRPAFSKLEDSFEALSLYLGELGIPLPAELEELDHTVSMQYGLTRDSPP

For `COCC(=O)NC/C=C/c1ccc2ncnc(Nc3ccc(Oc4ccc(C)nc4)c(C)c3)c2c1` [CP-724714], in test [1], the % of control came to 100%.

`N#Cc1cccc(-c2c[nH]c3ncnc(N4CCOCC4)c23)c1` showed a % of control in test [2] of 94%.

Consider `O=C(NOC[C@H](O)CO)c1ccc(F)c(F)c1Nc1ccc(I)cc1F`, for which, in test [3], the % of control was 100%.

For the compound `CNC(=O)Nc1ccc(-c2nc(N3CC4CCC(C3)O4)c3cnn(C4CCC5(CC4)OCCO5)c3n2)cc1`, in test [4], the % of control amounted to 90%.

Take `C=CC(=O)Nc1cccc(C(=O)Nc2ccc(Nc3cc(-c4[nH]c(SC)nc4C)ccn3)cc2)c1`: the % of control in test [5] (at 1 µM) is 27%; in test [5] (at 5 µM), 4%; in test [6] (at 1 µM) it was 90%; in test [6] (at 5 µM), 67%; in test [7] (at 1 µM), 105%; in test [7] (at 5 µM), 87%.

Consider `Cc1cc(C)cc([C@@H]2c3cc(C)ccc3NC(=O)CN2C(=O)c2ccc(Br)s2)c1`, for which the % of activity in test [8] (at 1 µM) and in test [8] (at 10 µM) was 102% each time.

Source of the values: ChEMBL document CHEMBL5465560, “Selectivity Literature for EUbOPEN Chemogenomic Library” (2024).
